Experimental data: patent US7341717B2, “Therapeutic targets for treatment of HCV infections, methods of treating HCV infections and compounds useful therefor” (priority 2001, dated 2008)

What was measured:
[1] = test system: HCV replicon (subgenomic HCV RNA, NS5a); test: HCV replicon RNA (Northern blot) and NS5a protein (Western blot) levels in HuH7 replicon cell lines; format: cell-based, Hepatitis C virus; details: for effect like all-trans-retinoic acid (GI-GPx upregulation, reduction of HCV RNA and NS5a): alone or in combination with each other or with selenium or a selenium salt; for reduction of HCV load: replicon cells
Method: The HuH7 pcDNA3 control cells and the replicon cell lines 5-15, 11-7 and 9-13 were plated as described in legend to FIG. 1 and after three days (Day 0) treated for two (Day 2) and four days (Day 4) with 1000U/ml interferon α (IFN-α). Then, cultures were harvested and RNA was prepared. 10 μg of total RNA were used for Northern blot analysis. For detection of GI-GPx (A) Probe 1 was used (see FIG. 1). The membranes were stripped and successively hybridized with probes for PKR (B) and neomycin phosphotransferase (Neo)(C). […]
(§1) Western blot analysis was performed using an NS5a antibody (FIG. 5). Expression of the transduced GI-GPx cDNA was monitored with a GI-GPx-specific antiserum (FIG. 6).
(§2) Replicon cells were incubated with alpha interferon (IFN-α) for two and four days. Northern blot analyses were performed with 10 μg total RNA. […] Interferon had no effect on the expression of GI-GPx in mock transfected HuH7 cells (cf FIG. 4).
(§3) As a model system for HCV replication there were utilized three replicon cell lines provided by Prof. R. Bartenschlager (University of Heidelberg, Germany). Cultures were treated for various periods of time with all trans-retinoic acid (RA) for comparative purposes and the other agents selenium, selenium salts, Vitamin D3 and retinoids, like 9-cis-retinoic acid, C1-C10 alkyl esters of 9-cis-retinoic acid, C1-C10 alkyl amides of 9-cis-retinoic acid, N-(4-hydroxyphenyl) retinamide (4-HPR), 6-[3-(1-adamantyl)-4-hydroxyphenyl]-2-naphthalene carboxylic acid (CD437; AHPN) (obtained from Sigma), paraquat, 4-[E-2-(5,6,7,8-tetrahydro-5,5,8,8-tetramethyl-2-naphthalenyl)-1-propenyl]benzoic acid, 4-hydroxyphenylretinamide, and 4-[(5,6,7,8-tetrahydro-5,5,8,8-tetramethyl-2-naphtalenyl)carboxamido]benzoic acid.
(§4) Levels of GI-GPx protein expression were measured by Western Blotting using antibodies provided by Prof. Brigelius-Flohe (University of Potsdam, Germany), and RNA levels were measured by Northern blotting using GI-GPx-specific oligonucleotides as probes. Levels of HCV RNA were investigated by Northern Blotting using a DNA oligonucleotide complementary to the neomycin phosphotransferase gene as probe. Concentration of the viral protein NS5a was determined by Western Blotting with an NS5a-specific antibody (Biogenesis, UK).

GI-GPx [2] = test: GI-GPx RNA and protein expression in HuH7 replicon cell lines; format: cell-based, human
Method: (§5) The HuH7 pcDNA3 control cells and the replicon cell lines 5-15, 11-7 and 9-13 were plated as described in legend to FIG. 1 and after three days (Day 0) treated for two (Day 2) and four days (Day 4) with 1000U/ml interferon α (IFN-α). Then, cultures were harvested and RNA was prepared. 10 μg of total RNA were used for Northern blot analysis. For detection of GI-GPx (A) Probe 1 was used (see FIG. 1). The membranes were stripped and successively hybridized with probes for PKR (B) and neomycin phosphotransferase (Neo)(C).
as §1
The x-ray films were densitometrically scanned and the NS5a values compared with untransfected control cells (set as 100%) (FIG. 5) and the GI-GPx values compared with the maximum expression of the transduced GI-GPx cDNA obtained seven days post infection (set as 100%) (FIG. 6).
as §2, §3, §4

GI-GPx [3] = test: GI-GPx expression in mock transfected HuH7 cells; format: cell-based, human
Method: as §5, §2

replicon cells = test: Cytotoxic effects in replicon cells; format: cell-based, human
Excerpt: As a model system for HCV replication there were utilized three replicon cell lines provided by Prof. R. Bartenschlager (University of Heidelberg, Germany).

[4] = test system: PKR (double strand RNA-dependent protein kinase); test: Transcription of PKR in replicon cells; format: cell-based, human
Method: as §5
This fact implies that downregulation of HCV was promoted firstly by activation of the GI-GPx gene on transcriptional level by retinoic acid and secondly by the synthesis of selenoprotein(s) for which sodium selenite was needed. Indeed it could be shown that all-trans-retinoic acid-induced downregulation of HCV is independent of the innate immune response induced by interferon.

HuH 11-7 replicon cells = test: Paraquat sensitivity, Alamar Blue viability assay; format: cell-based, human; details: HuH 11-7, 24 hours, three independent experiments
Method: (§6) Cells were plated in 96-well microtiter plates (5×10^3 cells/0.35 cm^2) and after three days treated for 24 hours with the concentration of paraquat depicted. Cell viability was measured utilizing an Alamar-Blue assay and is reflected by relative fluorescence units (RFU) at 405 nm.
(§7) Replicon cell lines and control cells were incubated for 24 hours with various concentrations of paraquat (methylviologen), and viability of the cultures was measured using the Alamar Blue assay.
(§8) For quantification of the degree of cell death in cell culture we employed the viability assay based on the reduction of tetrazolium salt to formazan by mitochondrial dehydrogenase activity. The assay was performed in 96-well microtiter plates (Greiner, Frickenhausen, Germany) as described previously (T. Herget et al., 1998, J. Neurochem., 70: 47-58) but Alamar Blue (Roche Molecular Biochemicals, Germany) was used instead of MTT. The light absorbance at 405 nm of the medium including all factors but without cells was determined and subtracted from the absorption readings with cells. Eight wells per sample point were analyzed and each experiment was repeated independently at least three times.

HuH 5-15 replicon cells = test: Paraquat sensitivity, Alamar Blue viability assay; format: cell-based, human; details: HuH 5-15, 24 hours, three independent experiments
Method: as §6, §7, §8

HuH pcDNA3 control cells = test: Paraquat sensitivity, Alamar Blue viability assay; format: cell-based, human; details: 24 hours, three independent experiments
Method: as §6, §7, §8

HuH 9-13 replicon cells = test: Paraquat sensitivity, Alamar Blue viability assay; format: cell-based, human; details: HuH 9-13, 24 hours, three independent experiments
Method: as §6, §7, §8

Row | Compound | effect like all-trans-retinoic acid (GI-GPx upregulation, reduction of HCV RNA and NS5a) [1] | reduction of HCV load [1] | also measured
1 | IFN-α |  |  | HCV-replicon RNA and HCV protein NS5a level ([1]; 1000 U/ml, two and four days): time- and dose-dependent down-regulation; GI-GPx expression (GI-GPx [2]; replicon cells, within four days of interferon treatment, 1000 U/ml): up-regulated; GI-GPx expression (GI-GPx [3]): no effect
2 | CCOC(=O)/C=C(C)/C=C/C=C(C)/C=C/c1c(C)cc(OC)c(C)c1C [etretinate] | showed a similar effect | capable of reducing HCV load | 
3 | CC1=C(/C=C/C(C)=C\C=C\C(C)=C\C(=O)O)C(C)(C)CCC1 [9-cis retinoic acid] | showed a similar effect | capable of reducing HCV load | 
4 | CC1(C)CCC(C)(C)c2cc(C(=O)Nc3ccc(C(=O)O)cc3)ccc21 [4-[(5,6,7,8-tetrahydro-5,5,8,8-tetramethyl-2-naphthalenyl)carboxamido]benzoic acid] | showed a similar effect | capable of reducing HCV load | 
5 | C/C(=C\c1ccc(C(=O)O)cc1)c1ccc2c(c1)C(C)(C)CCC2(C)C [4-[E-2-(5,6,7,8-tetrahydro-5,5,8,8-tetramethyl-2-naphthalenyl)-1-propenyl]benzoic acid] | showed a similar effect | capable of reducing HCV load | 
6 | CC1=C(/C=C/C(C)=C/C=C/C(C)=C/C(=O)O)C(C)(C)CCC1 [all-trans-retinoic acid] |  |  | toxic effects (replicon cells; six days, in the presence of selenium or a selenium salt): absence of toxic effects; downregulation of subgenomic HCV RNA and viral protein NS5a ([1]; 1 μM, seven days, depending on the cell line): two- to five-fold; effect on HCV expression ([1]; 1 μM, three days): hardly any effect; reduction of HCV RNA and HCV NS5a protein ([1]; six days, in the presence of selenium or a selenium salt like sodium selenite): two-to five-fold; induction of transcription of PKR [4]: did not induce; up-regulation of GI-GPx, RNA and protein level (GI-GPx [2]; 1 μM, seven days of incubation): three- to ten-fold; effect on GI-GPx expression (GI-GPx [2]; 1 μM, three days): hardly any effect; GI-GPx RNA and protein (GI-GPx [2]; six days): upregulation
7 | CC1=C(/C=C/C(C)=C/C=C/C(C)=C/C(=O)Nc2ccc(O)cc2)C(C)(C)CCC1 [4-HPR, N-(4-hydroxyphenyl) retinamide] | showed a similar effect | capable of reducing HCV load | 
8 | O=C(O)c1ccc2cc(-c3ccc(O)c(C45CC6CC(CC(C6)C4)C5)c3)ccc2c1 [CD437, 6-[3-(1-adamantyl)-4-hydroxyphenyl]-2-naphthalene carboxylic acid] | showed a similar effect | capable of reducing HCV load | 
9 | O=[Se](O)O [sodium selenite] |  |  | severe cytotoxic effects (replicon cells; alone or both in combination): neither observed
10 | CC1=C(/C=C/C(C)=C/C=C/C(C)=C/C=O)C(C)(C)CCC1 [retinoic acid adlehyde] | showed a similar effect | capable of reducing HCV load | 
11 | CC1=C(/C=C/C(C)=C/C=C/C(C)=C\C(=O)O)C(C)(C)CCC1 [13-cis retinoic acid] | showed a similar effect | capable of reducing HCV load | 
12 | C[n+]1ccc(-c2cc[n+](C)cc2)cc1 [paraquat] | showed a similar effect | capable of reducing HCV load | LD50 for paraquat (HuH 11-7 replicon cells): 310 ± 65 µM; LD50 for paraquat (HuH 5-15 replicon cells): 270 ± 75 µM; LD50 for paraquat (HuH pcDNA3 control cells): 1250 ± 120 µM; LD50 for paraquat (HuH 9-13 replicon cells): 260 ± 50 µM
13 | CC1=C(/C=C/C(C)=C/C=C/C(C)=C/CO)C(C)(C)CCC1 [retinol] | showed a similar effect | capable of reducing HCV load | 
